{"source": "patent US10154988B2", "about": "“Methods and compositions for treating schizophrenia” (The Johns Hopkins University, priority 2012, dated 2018)", "key": {"[1]": {"conditions": "cited from earlier work"}, "[2]": {"assay": "levetiracetam blood plasma levels in aMCI patients", "type": "in vivo", "conditions": "human", "excerpt": "Visit 1: At the end of the first drug/placebo period 2 weeks after the Baseline Visit, the medical, neurological and psychiatric evaluations and cognitive testing are repeated. The subject is also clinically evaluated for suicidal ideation. Blood is drawn again to repeat the standard tests and to determine whether there are any changes related to drug treatment; the subject's blood levetiracetam level is also obtained. All medication that is dispensed at the Baseline Visit (drug or placebo) is collected and subject compliance with the medication regimen is assessed. The first fMRI session (with cognitive tests) is conducted on the same day, either immediately before or immediately after the clinical assessment. Subjects discontinue first period treatment at this visit.\nVisit 2: At approximately 2 weeks after the Washout Visit (i.e., 2 weeks after starting the second treatment period), the medical, neurological and psychiatric evaluations and the cognitive testing are repeated. The subject is clinically evaluated for suicidal ideation. Blood is drawn again to repeat the standard tests and to determine whether there are any changes related to drug treatment; the subject's blood levetiracetam level is also obtained. All medication that is dispensed at the Washout Visit is collected and subject compliance with the medication regimen is assessed. The second fMRI session (with cognitive tests) is repeated on the same day, either immediately before or immediately after the clinical assessment.\nVisit 2: At approximately 2 weeks after the Washout Visit (i.e., 2 weeks after starting the second treatment period), the medical, neurological and psychiatric evaluations and the cognitive testing are repeated. The subject is clinically evaluated for suicidal ideation. […] All medication being dispensed at the Washout Visit is collected and subject compliance with the medication regimen is assessed. […]\nHuman: in the human studies described in Examples 3 and 4, a subject's levetiracetam blood plasma level is assessed at each visit. […]"}, "[3]": {"tested_on": "Age-Impaired (AI) Long-Evans rats", "assay": "Morris Water Maze retention trial, levetiracetam in aged-impaired rats", "type": "in vivo, rat", "description": "The MWM apparatus consists of a large, circular pool (diameter 1.83 m; height, 0.58 m) filled with water (27° C.) that is made opaque through the addition of non-toxic pigment or some other substance. In the typical “hidden platform” version of the test, rats are trained to find a camouflaged white escape platform (height, 34.5 cm) that is positioned in the center of one quadrant of the maze about 1.0 cm below the water surface. This platform can be retracted to the bottom of the tank or raised to its normal position from outside the maze during behavioral testing. The location of the platform remains constant from trial to trial. Because there are no local cues that mark the position of the platform, the rat's ability to locate it efficiently from any starting position at the perimeter of the pool depends on using information surrounding the maze. The maze is surrounded by black curtains to which white patterns are affixed to provide a configuration of spatial cues. A second platform (height 37.5 cm), with its surface painted black is elevated 2 cm above the water surface during cue training to control for factors unrelated to cognition. The behavior of a rat in the pool is recorded by a camera that is suspended 2.5 m above the center of the pool. The camera is connected to a video tracking system (HVS Image Advanced Tracker VP200) and a PC computer running HVS software developed by Richard Baker of HVS Image, Hampton, UK. The MWM protocol is optimized for sensitivity to the effects of aging on cognition and for measures of reliable individual differences within the aged population of out-bred Long-Evans rats (Gallagher et al. Behav. Neurosci. 107:618-626, (1993)). Rats receive three trials per day for 8 consecutive days, using a 60 sec inter-trial interval. On each training trial, the rat is released into the maze from one of four equally spaced starting positions around the perimeter of the pool. The starting position varies from trial to trial, thus preventing the use of a response strategy (e.g., always turning left from the start location to locate the escape platform). […] Every sixth trial consists of a probe trial to assess the development of spatial bias in the maze. During these trials, the rat swims with the platform being refracted to the bottom of the pool for 30 sec, at which time the platform is raised to its normal position for completion of the escape trial. At the completion of the protocol using the hidden platform, rats are assessed for cue learning using the visible platform. The location of this platform varies from trial to trial in a single session of 6 training trials. […]"}, "[4]": {"assay": "levetiracetam blood plasma levels in aged-impaired rats", "type": "in vivo", "conditions": "rat", "description": "Rats: Blood is drawn from aged-impaired rats by cardiac puncture during perfusion after a 28-day levetiracetam treatment period and is sent for analysis of levetiracetam plasma levels by MedTox Laboratories in St. Paul, Minn.\nThe levetiracetam blood levels in the aged-impaired rats treated with daily levetiracetam doses of 10 mg/kg and 60 mg/kg can be use to estimate the levetiracetam blood level of its daily dose of 20 mg/kg. This extrapolation gives an estimated levetiracetam blood level of 7.6 mcg/ml for the 20 mg/kg daily dose."}, "[5]": {"conditions": "10 mg/kg/day i.p., retention trial"}}, "note": "Where two headings read alike, the source gives them in different places."}
{"smiles": "CC[C@@H](C(N)=O)N1CCCC1=O", "note": "[levetiracetam, (2S)-2-(2-oxopyrrolidin-1-yl) butanamide]", "values": [{"measurement": "plasma half-life expected in elderly", "setting": "[1]; elderly, decreased renal function", "value": "9 to 10", "unit": "h"}, {"measurement": "time of peak plasma concentrations", "setting": "[1]; following oral administration", "value": "about 1 hour"}, {"measurement": "plasma half-life", "setting": "[1]; humans", "value": "approximately 7±1 hour"}, {"measurement": "time to steady state", "setting": "[1]; multiple twice-daily dosing", "value": 2, "unit": "days"}, {"measurement": "absorption after oral administration", "setting": "[1]; oral", "value": "rapidly and almost completely absorbed"}, {"measurement": "effect of food on bioavailability", "setting": "[1]; oral", "value": "not affected by food"}, {"measurement": "concentration at 2 weeks", "setting": "[2]; 62.5 mg BID cohort (125 mg/day), SEM±0.288, read-out: mean levetiracetam blood plasma level", "value": 2880, "unit": "ng/mL"}, {"measurement": "concentration at 2 weeks", "setting": "[2]; 125 mg BID cohort (250 mg/day), SEM±0.53, read-out: mean levetiracetam blood plasma level", "value": 4400, "unit": "ng/mL"}, {"measurement": "concentration at 2 weeks", "setting": "[2]; 250 mg BID cohort (500 mg/day), SEM±0.92, read-out: mean levetiracetam blood plasma level", "value": 7900, "unit": "ng/mL"}, {"measurement": "performance (time in target quadrant) versus vehicle", "setting": "[3]; 5 mg/kg/day i.p., retention trial", "value": "does not significantly improve"}, {"measurement": "memory as compared to vehicle-treated controls", "setting": "[3]; [5]", "value": "significantly improved memory"}, {"measurement": "time spent in the target annulus", "setting": "[3]; [5]", "value": "effectiveness of the 10 mg/kg/day levetiracetam treatment is also seen"}, {"measurement": "time spent in the target quadrant, percentage of total swimming time", "setting": "[3]; 10 mg/kg/day i.p., retention trial 24 h after two training days, vehicle approximately 25%", "value": "approximately 35%"}, {"measurement": "concentration at 28 days", "setting": "[4]; 20 mg/kg daily dose, extrapolated from 10 and 60 mg/kg, read-out: estimated levetiracetam blood level", "value": 7600, "unit": "ng/mL"}, {"measurement": "concentration at 28 days", "setting": "[4]; other: osmotic minipumps, 10 mg/kg/day, 28 days, SEM±0.255, read-out: mean levetiracetam blood plasma level", "value": 3800, "unit": "ng/mL"}, {"measurement": "concentration at 28 days", "setting": "[4]; other: osmotic minipumps, 20 mg/kg daily dose, extrapolated from 10 and 60 mg/kg, read-out: estimated levetiracetam blood level", "value": 7600, "unit": "ng/mL"}]}
